Measured values from patent publication US11312690B2, “Compounds, compositions, methods for treating diseases, and methods for preparing compounds” (UNIVERSITY OF LOUISVILLE RESEARCH FOUNDATION, INC., priority 2015, dated 2022).
pIC50: −log10 of the molar value.

Assays:
MiaPaCa-2 = test: Soft agar colony formation; format: cell-based, human
Method: FIG. 1. Effects of some compounds of Formula (I) on RalGEF inhibitor on soft agar growth and normal growth in 2D of pancreatic carcinoma cell lines. In FIGS. 1A and 1B, Panc-1 (ATCC® CRL-1469™) and MiaPaCa-2 (ATCC® CRL-1420™) mutant Ras containing pancreatic tumor cell lines were plated in soft agar in the presence of 10 μM or 0.9 μM of compound I-1 and scored for the formation of colonies. In FIGS. 1C and 1D, compound I-1 was then tested for the ability to inhibit cell growth on the same cell lines under normal 2D growth conditions on plastic. “0” is the carrier. Cells were seeded at the same density and scored after two weeks in culture.
Human pancreatic tumor cell lines MiaPaca-2 and Panc-1 contain activated K-Ras and were used in the initial screen to identify compound I-1. Soft agar colony formation remains an established in vitro assay to predict tumorigenicity and was used to predict tumorigenicity for compound I-1.
Several other compounds were tested against the Mia Paca-2 cell line using the soft agar colony formation in vitro assay in two experiments. For each table, DMSO was used as a control and, as such, within each table, the DMSO colonies are the measure against which each measurement in the corresponding table is compared.

[1] = target: T1, interaction of K-Ras with RalGDS (Homo sapiens, UniProt Q12967); test: Ras/RalGEF binding, immunoprecipitation and immunoblot from co-transfected HEK-293 cells; details: 10 μM, HA K-Ras 12v and GFP-RalGDS, IP/IB, FIG. 3A
T1 construct: expressed in transfected cells; host or cells: HEK-293
T1 sequence (Q12967 1-914): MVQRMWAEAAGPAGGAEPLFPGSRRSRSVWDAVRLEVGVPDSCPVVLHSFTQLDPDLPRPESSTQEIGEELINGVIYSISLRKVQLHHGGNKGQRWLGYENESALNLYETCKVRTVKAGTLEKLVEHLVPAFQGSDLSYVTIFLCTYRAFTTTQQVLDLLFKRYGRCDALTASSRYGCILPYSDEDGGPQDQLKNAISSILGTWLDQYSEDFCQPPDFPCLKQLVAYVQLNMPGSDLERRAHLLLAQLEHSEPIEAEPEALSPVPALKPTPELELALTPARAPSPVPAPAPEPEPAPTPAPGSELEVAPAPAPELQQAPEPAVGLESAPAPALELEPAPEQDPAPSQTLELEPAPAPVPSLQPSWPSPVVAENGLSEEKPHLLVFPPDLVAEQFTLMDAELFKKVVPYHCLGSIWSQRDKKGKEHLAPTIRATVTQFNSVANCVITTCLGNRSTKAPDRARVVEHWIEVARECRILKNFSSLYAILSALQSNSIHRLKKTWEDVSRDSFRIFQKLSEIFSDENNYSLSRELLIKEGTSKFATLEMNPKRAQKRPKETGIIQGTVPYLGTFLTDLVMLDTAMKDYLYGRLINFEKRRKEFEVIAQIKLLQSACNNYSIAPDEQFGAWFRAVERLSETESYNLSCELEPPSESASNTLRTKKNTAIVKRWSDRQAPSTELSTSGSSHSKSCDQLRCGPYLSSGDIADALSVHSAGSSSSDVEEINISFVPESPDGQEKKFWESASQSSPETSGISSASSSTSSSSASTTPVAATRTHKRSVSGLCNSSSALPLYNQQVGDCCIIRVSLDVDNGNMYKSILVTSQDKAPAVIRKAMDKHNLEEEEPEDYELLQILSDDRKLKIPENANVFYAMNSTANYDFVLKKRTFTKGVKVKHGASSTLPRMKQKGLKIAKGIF

Ral = test: Endogenous Ral activation in cells with endogenous hyper-activated Ras (RalBP1 pull down kit); format: cell-based; details: 10 μM, untransfected cells, FIG. 4
Method: (§1) Specific Inhibition of endogenous Ras/RalGEF signaling. FIG. 4. Specific suppression of Ral activation by some compounds of Formula (I). Cells with endogenous hyper-activated Ras were assayed for endogenous Ral activation in the presence or absence of inhibitor (10 μM) using a Cell Biolabs (SanDiego Calif.) kit. Compound I-1 was dissolved in DMSO; DMSO serves as the carrier negative control. IP is immunoprecipitation. IB is immunoblot. Cell lysates were then assayed for the levels of MAPK pathway activation using a phosphoERK antibody. They were the same. Actin is a loading control.
(§2) RalGEFs drive Ral into the active, GTP bound form so it can bind its effector RalBP1. […] Commercially available kits available from several vendors use RalBP1 attached to beads as an affinity reagent specific to the active form of Ral. By measuring the level of activated Ral and comparing it to the total levels of Ral, it is possible to measure the state of endogenous Ral activation. We assayed untransfected cells containing endogenous hyper-activated Ras for the effects of compound I-1 treatment on endogenous levels of active Ral levels.

Ras/Raf/MAPK pathway = test: MAPK pathway activation by phosphoERK antibody in cells with endogenous hyper-activated Ras; format: cell-based; details: 10 μM
Method: as §1, §2

[2] = Preliminary in vivo toxicity; design: species or system mice; details: 25 mg/kg, ip injection over 2 weeks, data not shown
RalA = test: Activated RalA pull down in lung tissue of Mia-PaCa2 xenograft mice; format: in vivo, NRG mice; details: treated vs carrier treated xenograft mouse, FIG. 5
Method: Some compounds of Formula (I) suppress Ral GTP levels in vivo—FIG. 5 NRG mice were provided with s.c. xenografts of Mia-PaCa2 cells. Tissue from the lungs of a carrier treated xenograft mouse and a compound I-1 treated mouse were assayed for the levels of activated RalA using a pull down assay kit using the manufacter's protocol (Cat. #BK040 from Cytoskeleton, Inc., Denver Colo.).

SMILES: COc1cccc(CNc2nc(CN(C)Cc3cccc(OC)c3)nc3sc(C)c(C)c23)c1 [Compound I-1]
- ability of the cells to grow in soft agar (MiaPaCa-2; 10 μM, FIG. 1B): almost completely blocked
- Colonies in agar (MiaPaCa-2; 10 μM, Table 2 experiment, DMSO control 182 ± 7 colonies): 0 ± 0
- Colonies in agar (MiaPaCa-2; 10 μM, Table 3 experiment, DMSO control 1686 ± 114 colonies): 12 ± 1
- tumorigenic phenotype in vitro (MiaPaCa-2; FIG. 1B): blocks the tumorigenic phenotype in vitro at low μM or sub μM levels
- pIC50 (MiaPaCa-2; Homo sapiens, MIA PaCa-2, read-out: IC50 (concentration that inhibits 50% of colony formation)): > 6.00
- stable association of Ras and RalGDS [1]: inhibited the stable association of Ras and RalGDS
- levels of endogenous active Ral (GTP bound) (Ral): suppressed the levels of endogenous active Ral
- Ras/Raf/MAPK pathway activation (levels of phospho ERK) (Ras/Raf/MAPK pathway): no inhibition of the Ras/Raf/MAPK pathway activation was detected
- deleterious effect on mice (behavior, weight) [2]: no obvious deleterious effect
- levels of active RalA in lung tissue (RalA): reduced levels of active RalA
